According to PMC9604400, “Synthesis, Anticancer and Antitubercular Properties of New Chalcones and Their Nitrogen-Containing Five-Membered Heterocyclic Hybrids Bearing Sulfonamide Moiety” (International Journal of Molecular Sciences, 2022):
Converted amounts (≈) assume the structure as drawn. Read-outs that look alike come from different tables or passages of the source.

What was measured:
[1] = Figure 1, literature compound, cited from earlier work
α-glucosidase = conditions: Figure 1, literature compound; cited from earlier work
[2] = system: 60 human cancer cell lines; test: NCI-60 screen (SRB), whole panel; type: cell-based; conditions: Homo sapiens; single dose 10 μM, mean over 60 cell lines; over 100% = cell death; read-out: Mean growth inhibition (GI) percentage
[3] = system: Mycobacterium tuberculosis H37Rv (ATCC 27294); test: microbe, parasite or virus in culture; type: cell-based; conditions: agar dilution SPOTi, read-out: MIC Against M. tuberculosis H37Rv
[4] = system: Mycobacterium bovis BCG (ATCC 35734); test: microbe, parasite or virus in culture; type: cell-based; conditions: for MIC: Mycobacterium tuberculosis variant bovis BCG, read-out: MIC Against M. bovis BCG; for MIC Against M. bovis BCG: agar dilution SPOTi
[5] = Cytotoxicity on Vero cell line (MTT); type: cell-based, African green monkey; conditions: African green monkey, Vero cells (African green monkey kidney, ATCC CCL-81); MTT, 24 h
Vero cell line = test: Cytotoxicity on Vero cell line (MTT); type: cell-based, African green monkey; conditions: Vero IC50 / MIC M. tuberculosis H37Rv
M. tuberculosis H37Rv [6] = test: Checkerboard synergism assay; type: cell-based, Mycobacterium tuberculosis; conditions: for MIC: Mycobacterium tuberculosis, H37RV, checkerboard, alone
Description: The synergism assays were carried out in 96-well plates with Middlebrook 7H9 medium supplemented with OADC.

M. tuberculosis H37Rv [7] = test: Growth curves in liquid medium and re-plating (cidal or static); type: cell-based, Mycobacterium tuberculosis; conditions: for cidal or static effect: re-plating on solid media without compound, up to 10×MIC
[8] = compound in combination with AMK
[9] = compound in combination with INH
[10] = compound in combination with LVX
[11] = compound in combination with RIF
[12] = 10×MIC, 21 days, compared with day 0
[13] = antibiotic in combination with 20a
[14] = antibiotic in combination with 20f

In the case of `Cc1ccc(S(=O)(=O)Nc2ccc(C(=O)/C=C/c3ccc(Br)cc3)cc2)cc1` [Compound 1], the LD50 [1] is given as 220 µM.
In the case of `Cc1ccc(S(=O)(=O)Nc2ccc(C(=O)/C=C/c3ccc(O)c(O)c3)cc2)cc1` [Compound 2], the IC50 (α-glucosidase) is listed as 400 nM.
For `NS(=O)(=O)c1ccc(N2N=C(C(F)(F)F)CC2c2ccc(F)cc2F)cc1` (stereo not shown) [Compound 4], the ED50 ([1]; test not given) is listed as 7400 nM.
`COc1cc(OC)c(S(N)(=O)=O)cc1C(=O)/C=C/c1ccc2c(c1)OCO2` [Compound 17f, (E)-5-(3-(Benzo[d][1,3]dioxol-5-yl)acryloyl)-2,4-dimethoxybenzenesulfonamide] gave an inhibition at 10 µM [2] of 10.1%, an MIC ([3]; Mycobacterium tuberculosis) of 25 µM (≈ 9.79 µg/mL) and an MIC [4] greater than 25 µM. The melting point was 257 to 258 °C, the IC50 at 24 h [5] was 1700 ± 1740 nM and the “Selectivity Index (SI) (SI = IC50/MIC)” value (Vero cell line) was 0.07.
With `COc1ccc(C(=O)C=Cc2ccccc2)cc1S(=O)(=O)NNC(=O)c1ccncc1` [Compound 19a, 5-Cinnamoyl-N’-isonicotinoyl-2-methoxybenzenesulfonohydrazide] the inhibition at 10 µM [2] was 3.63%, the MIC ([3]; Mycobacterium tuberculosis) was 23 µM (≈ 10.1 µg/mL) and the MIC [4] was greater than 23 µM. For the same compound, the melting point was 227 to 229 °C, the IC50 at 24 h [5] was 6320 ± 820 nM and the “Selectivity Index (SI) (SI = IC50/MIC)” value (Vero cell line) was 0.28.
`COc1ccc(/C=C/C(=O)c2ccc(OC)c(S(=O)(=O)NNC(=O)c3ccncc3)c2)cc1` [Compound 19d, (E)-N’-Isonicotinoyl-2-methoxy-5-(3-(4-methoxyphenyl)acryloyl)benzenesulfonohydrazide] showed an MIC ([3]; Mycobacterium tuberculosis) of 21 µM (≈ 9.82 µg/mL), an MIC [4] greater than 21 µM and a melting point of 216 to 217 °C. The IC50 at 24 h [5] was 2190 ± 680 nM and the “Selectivity Index (SI) (SI = IC50/MIC)” value (Vero cell line) was 0.10.
`COc1cc(OC)c(S(=O)(=O)NNC(=O)c2ccncc2)cc1C(=O)C=Cc1ccccc1` [Compound 20a, 5-Cinnamoyl-N’-isonicotinoyl-2,4-dimethoxybenzenesulfonohydrazide] gave an inhibition at 10 µM [2] of 19%, an MIC ([3]; Mycobacterium tuberculosis) of 11 µM (≈ 5.14 µg/mL) and an MIC [3] of 11 µM (≈ 5.14 µg/mL). The MIC [4] was 11 µM (≈ 5.14 µg/mL), the “MIC Against M. bovis BCG” value [4] was 11 µM (≈ 5.14 µg/mL) and the MIC (M. tuberculosis H37Rv [6]) was 5 µg/mL. The “FICI Index” value (M. tuberculosis H37Rv [6]; [8]) was 2.00, the “MIC Combination” value (M. tuberculosis H37Rv [6]; [8]) was 5 µg/mL and the “FICI Index” value (M. tuberculosis H37Rv [6]; [9]) was 0.75. For the same compound, the “MIC Combination” value (M. tuberculosis H37Rv [6]; [9]) was 1.25 µg/mL, the “FICI Index” value (M. tuberculosis H37Rv [6]; [10]) was 1.25 and the “MIC Combination” value (M. tuberculosis H37Rv [6]; [10]) was 1.25 µg/mL. The “FICI Index” value (M. tuberculosis H37Rv [6]; [11]) was 1.25, the “MIC Combination” value (M. tuberculosis H37Rv [6]; [11]) was 5 µg/mL and the melting point was 143 to 145 °C. It also gave an IC50 at 24 h [5] of 6050 ± 1390 nM.
For `COc1ccc(/C=C/C(=O)c2cc(S(=O)(=O)NNC(=O)c3ccncc3)c(OC)cc2OC)cc1` [Compound 20d, (E)-N’-Isonicotinoyl-2,4-dimethoxy-5-(3-(4-methoxyphenyl)acryloyl)benzenesulfonohydrazide], the MIC ([3]; Mycobacterium tuberculosis) was 20 µM (≈ 9.95 µg/mL), the MIC [4] was greater than 20 µM and the melting point was 214 to 217 °C. The IC50 at 24 h [5] was 1000 ± 1200 nM and the “Selectivity Index (SI) (SI = IC50/MIC)” value (Vero cell line) was 0.05.
With `COc1cc(OC)c(S(=O)(=O)NNC(=O)c2ccncc2)cc1C(=O)/C=C/c1cc(OC)c(OC)c(OC)c1` [Compound 20e, (E)-N’-Isonicotinoyl-2,4-dimethoxy-5-(3-(3,4,5-trimethoxyphenyl)acryloyl)benzenesulfonohydrazide] the MIC ([3]; Mycobacterium tuberculosis) was 9 µM (≈ 5.02 µg/mL), the MIC [4] was 9 µM (≈ 5.02 µg/mL) and the “MIC Against M. bovis BCG” value [4] was 9.0 µM (≈ 5.02 µg/mL). For the same compound, the “growth of M. tuberculosis H37Rv in liquid medium (optical density)” value (“growth of M. tuberculosis H37Rv” for short) (M. tuberculosis H37Rv [7]; 1×MIC, after 21 days) was “moderate growth”, the “growth of M. tuberculosis H37Rv” value (M. tuberculosis H37Rv [7]; [12]) was “modest growth” and the “cidal or static effect” value (M. tuberculosis H37Rv [7]) was “bacteriostatic”. The melting point was 162 to 165 °C, the IC50 at 24 h [5] was 260 ± 690 nM and the “Selectivity Index (SI) (SI = IC50/MIC)” value (Vero cell line) was 0.03.
`COc1cc(OC)c(S(=O)(=O)NNC(=O)c2ccncc2)cc1C(=O)/C=C/c1ccc2c(c1)OCO2` [Compound 20f, (E)-5-(3-(Benzo[d][1,3]dioxol-5-yl)acryloyl)-N’-isonicotinoyl-2,4-dimethoxybenzenesulfonohydrazide] showed an inhibition at 10 µM [2] of 4.19%, an MIC ([3]; Mycobacterium tuberculosis) of 9.8 µM (≈ 5.01 µg/mL) and an MIC [4] of 20 µM (≈ 10.2 µg/mL). The “growth of M. tuberculosis H37Rv” value (M. tuberculosis H37Rv [7]; 1×MIC, after 21 days) was “moderate growth”, the “growth of M. tuberculosis H37Rv” value (M. tuberculosis H37Rv [7]; [12]) was “no significant growth” and the “cidal or static effect” value (M. tuberculosis H37Rv [7]) was “bacteriostatic”. For the same compound, the MIC (M. tuberculosis H37Rv [6]) was 5 µg/mL, the “FICI Index” value (M. tuberculosis H37Rv [6]; [8]) was 2.00 and the “MIC Combination” value (M. tuberculosis H37Rv [6]; [8]) was 5 µg/mL. For the same compound, the “FICI Index” value (M. tuberculosis H37Rv [6]; [9]) was 1.00, the “MIC Combination” value (M. tuberculosis H37Rv [6]; [9]) was 2.5 µg/mL and the “FICI Index” value (M. tuberculosis H37Rv [6]; [10]) was 1.00. For the same compound, the “MIC Combination” value (M. tuberculosis H37Rv [6]; [10]) was 2.5 µg/mL, the “MIC Combination” value (M. tuberculosis H37Rv [6]; [11]) was 1.25 µg/mL and the “interaction (from FICI)” value (M. tuberculosis H37Rv [6]; in combination with rifampicin) was “synergism”. For the same compound, the melting point was 150 to 152 °C, the IC50 at 24 h [5] was 2550 ± 930 nM and the “Selectivity Index (SI) (SI = IC50/MIC)” value (Vero cell line) was 0.26.
`COc1ccc(C2=NN(C(N)=S)C(c3ccc(Cl)cc3)C2)cc1S(N)(=O)=O` (stereo not shown) [Compound 27a, 5-(4-Chlorophenyl)-3-(4-methoxy-3-sulfamoylphenyl)-4,5-dihydro-1H-pyrazole-1-carbothioamide] gave an inhibition at 10 µM [2] of -0.54% and a melting point of 206 to 208 °C.
In the case of `COc1cc(OC)c(S(N)(=O)=O)cc1C1=NN(C(N)=S)C(c2ccc(Cl)cc2)C1` (stereo not shown) [Compound 27d, 5-(4-Chlorophenyl)-3-(2,4-dimethoxy-5-sulfamoylphenyl)-4,5-dihydro-1H-pyrazole-1-carbothioamide], the inhibition at 10 µM [2] is reported as 2.34% and the melting point is reported as 223 to 225 °C.
With `NNC(=O)c1ccncc1` [Isoniazid, isoniazid, reference compound] the MIC ([3]; Mycobacterium tuberculosis) was 0.36 µM (≈ 0.0494 µg/mL), the MIC [4] was 0.36 µM (≈ 0.0494 µg/mL) and the MIC (M. tuberculosis H37Rv [6]) was 0.012 µg/mL. For the same compound, the “FICI Index” value (M. tuberculosis H37Rv [6]; [13]) was 0.75, the “MIC Combination” value (M. tuberculosis H37Rv [6]; [13]) was 0.006 µg/mL and the “FICI Index” value (M. tuberculosis H37Rv [6]; [14]) was 1.00. For the same compound, the “MIC Combination” value (M. tuberculosis H37Rv [6]; [14]) was 0.006 µg/mL.
